Assay results: US5459256A, “Lipophilic, aminohydrolase-activated prodrugs” (priority 1991, dated 1995)
Entries after “also recorded” stand apart in the source; their conditions may differ. Where two headings read alike, the source gives them in different places.

Columns and labels:
[1] = Octanol-water partition coefficient, microscale shake-flask
Description: Measurement of Octanol-Water Partition Coefficients.
n-Octanol-water partition coefficients (P) were determined by a microscale shake-flask procedure, (Ford, H. et al Abstracts of Papers, 200th National Meeting of the American Chemical Society, Washington, D.C.; American Chemical Society: Washington, D.C., 1990; CARB 13) which was modification of an earlier method (Nahum, A. & Horvath, C. J. Chromatogr. 1980, 192, 315). A 20 μL aliquot of a 0.5 mg/mL DMSO solution of the dideoxynucleoside was dissolved in 1.0 mL of octanol-saturated, pH 7.0, 0.01M potassium phosphate buffer. This was mixed thoroughly with 1.0 ml of buffer-saturated n-octanol in a 2-mL Mixxor apparatus at 24°-26° C. and then allowed to stand for 15 min. The phases were separated, centrifuged at 600×g for 5 min, and the relative concentration of sample in each phase determined by HPLC analysis of a 50 μl aliquot. The partition coefficient was calculated by dividing the absolute area of the appropriate integrated peak from the octanol phase by that of the buffer phase (Table I).
Octanol/pH 7.0 buffer partition coefficients were determined using a newly developed microscale method. […] The addition of a methyl group normally increases the log P value of a compound by about 0.5.

[2] = test system: HIV-1/IIIB (CD4^+ ATH8 cells); test: HIV cytopathic effect inhibition assay in ATH8 cells (% protection); format: cell-based; conditions: for anti-HIV activity (in words): no additive
Description: (§1) HIV Cytopathic Effect Inhibition Assay.
(§2) The HIV cytopathic effect inhibition assay was performed as previously described. (Mitsuya, H. & Broder, S. Proc. Nat. Acad. Sci. USA 1986, 83, 1911) Briefly, 200,000 target CD4^+ ATH8 cells were exposed to cell-free HIV-1/IIIB at a dose of 43 (or 1087 for compound 1g) TCID50 (50% tissue culture infectious dose) for 1 h, resuspended in 2 ml of fresh culture media containing interleukin 2, and cultured at 37° C. with or without test compounds in 5% CO2 -containing humidified air. On day 8 in culture, the viable cells were counted by using the dye exclusion method. All compounds, including inactives, were evaluated a minimum of two times in separate experiments. Data reported in Table II are from representative tests. The % protection against the virus was determined by the following formula: 100 times [(the number of viable cells exposed to HIV-1 and cultured in the presence of the compound minus the number of viable cells exposed to HIV-1 and cultured in the absence of compound) divided by (the number of viable cells cultured alone minus the number of viable cells exposed to HIV-1 and cultured in the absence of the compound)]. The % toxicity of a compound on the target cells was determined by the following formula: 100 times [1 minus (the number of total viable cells cultured in the presence of the compound divided by the number of total viable cells cultured alone)]. Calculated percentages equal to or less than zero are expressed as 0%.
^a ATH8 cells were exposed to HIV1/IIIB per cell for 1 hr and
cultured in the presence of various concentrations of each compound. On
day 8, the total viable cells were counted. Orders of numbers in the
column for concentrations correspond to the orders of numbers in other

[3] = Toxicity on ATH8 target cells (% toxicity, dye exclusion); format: cell-based; conditions: human, ath8 cells
Description: as §1
as §2, with “(Mitsuya, H. & Broder, S. Proc. Nat. Acad. Sci. USA 1986, 83, 1911) Briefly, 200,000 target CD4^+ ATH8 cells were exposed to cell-free HIV-1/IIIB at a dose of 43 (or 1087 for compound 1g) TCID50 (50% tissue culture infectious dose) for 1 h, resuspended in 2 ml of fresh culture media containing interleukin 2, and cultured at 37° C. with or without test compounds in 5% CO2 -containing humidified air.” left out

CD4^+ ATH8 cells = test: as above; format: cell-based; conditions: for % Toxicity: human
Description: as §1
as §2, with “(Mitsuya, H. & Broder, S. Proc. Nat. Acad. Sci. USA 1986, 83, 1911) Briefly, 200,000 target CD4^+ ATH8 cells were exposed to cell-free HIV-1/IIIB at a dose of 43 (or 1087 for compound 1g) TCID50 (50% tissue culture infectious dose) for 1 h, resuspended in 2 ml of fresh culture media containing interleukin 2, and cultured at 37° C. with or without test compounds in 5% CO2 -containing humidified air.” left out

[4] = target: T1, adenosine deaminase (adenosine aminohydrolase, EC 3.5.4.4) (Bos taurus, UniProt P56658); test: Enzymatic deamination by adenosine deaminase (HPLC)
T1 sequence (P56658 1-363): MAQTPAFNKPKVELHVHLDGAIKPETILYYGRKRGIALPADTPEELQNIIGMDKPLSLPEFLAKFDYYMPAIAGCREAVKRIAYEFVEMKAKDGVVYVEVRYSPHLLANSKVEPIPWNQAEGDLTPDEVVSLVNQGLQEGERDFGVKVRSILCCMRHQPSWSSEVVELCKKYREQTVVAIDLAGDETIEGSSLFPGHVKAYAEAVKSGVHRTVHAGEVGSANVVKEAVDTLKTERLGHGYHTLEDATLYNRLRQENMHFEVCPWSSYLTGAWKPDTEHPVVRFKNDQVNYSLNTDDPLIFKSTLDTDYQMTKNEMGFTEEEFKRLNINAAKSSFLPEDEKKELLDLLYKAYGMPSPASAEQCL
Description: FIG. 1. Deamination of dideoxyadenosine analogues by adenosine deaminase. Hydrolysis kinetics and 2'-F-dd-ara-I formation during the incubation of 50 μM N^6 -CH3 -2'-F-dd-ara-A (1f) with 0.7 units/mL of adenosine deaminase at 37° C. A unit of adenosine deaminase is the amount of enzyme which hydrolyzes a standard substrate (e.g., adenosine) at the rate of 1.0 μmole/min at 25° C. and pH 7.5. […] Insert: Adenosine deaminase hydrolysis kinetics for 50 μM ddA and 2'-F-dd-ara-A. The hydrolysis curve for ddA has been extrapolated from kinetics obtained with 0.07 units/mL of adenosine deaminase under identical conditions.
A 50 μl aliquot of a 10 mg/ml suspension of adenosine deaminase (adenosine aminohydrolase, EC 3.5.4.4) from calf intestinal mucosa was centrifuged at 600×g for 3 min. The residue remaining after removal of the (NH4)2 SO4 supernatant was dissolved in 0.5 ml pH 7.4 tris(hydroxymethyl)-aminomethane (Tris) buffer to give an enzyme solution of 1 mg/ml (274 units/ml). […] A pH 7.4 buffer was prepared by adjusting 0.01M Tris to pH 7.4 with 0.5N HCl, The 1.0 HCl , HPLC-grade acetonitrile, monobasic potassium phosphate, sodium hydroxide and ultrapure Tris were all commercially available and were used without further purification.
Enzymatic Deamination of Adenosine Analogues. […] A 50 μL aliquot of substrate solution was diluted with 0.95 ml 0.01M Tris buffer in a 1.5-mL Eppendorf tube and equilibrated at 37° C. in a Dubnoff metabolic shaking incubator. Reaction was initiated by addition of 2.5 μL of adenosine deaminase solution (0.7 unit). At specified time intervals, a 50 μL aliquot of the reaction mixture was withdrawn and quenched by mixing with 0.45 mL cold 2 μM 2'-deoxycoformycin. This diluted sample was ultrafiltered to remove enzyme in a Centrifree Micropartition unit by centrifugation at 600×g at 4° C. in a high speed refrigerated centrifuge. The decrease in substrate concentration was monitored by HPLC analysis of the resultant ultrafiltrate (see below). The ability of 2'-deoxycoformycin to inhibit deamination under the above conditions was evaluated by adding 2 μL of 1.0 mM inhibitor to diluted substrate solutions at the time of equilibration. Reaction, sampling and analysis were carried out as above. […] Initial hydrolysis rates for each substrate concentration were measured through linear least-squares curve fitting of the concentration versus time data for reaction of the first 10% of substrate. KM and vmax values for each substrate were then determined from a graphical lineweaver-Burke plot of these initial rates (FIG. 1).
HPLC Analysis of Dideoxypurine Nucleosides.
Concentrations of dideoxynucleosides were measured by the HPLC analysis of 100 μL aliquots of ultrafiltered samples. A 4.6×250 mm 5-μm Ultrasphere-ODS column, protected by a Waters guard column packed with 37-50 μm Vydac 201SC, was eluted with 10-20% CH3 CN in 0.01M pH 7.0 phosphate buffer at a flow rate of 1.0 mL/min. Dideoxynucleosides and deamination products were detected at the appropriate wavelength of maximum absorption with a Gilson 116 variable wavelength detector. Peak identity was determined from coincidence of retention times with standards and by comparison of on-the-fly UV spectra obtained with a Perkin-Elmer LC-235 diode array detector. Peak areas and peak heights were measured simultaneously on a Spectra-Physics SP4200 computing integrator.

[5] = octanol/ph 7.0 buffer, pH 7, Log P
[6] = octanol/ph 7.0 buffer, pH 7, octanol/pH 7.0 buffer partition coefficient (P)
[7] = without dCF, read-out: % Toxicity
[8] = additive alone, no test compound

SMILES: Cc1cn([C@H]2C[C@H](N=[N+]=[N-])[C@@H](CO)O2)c(=O)[nH]c1=O [AZT, reference compound]
- partitioning (in words) ([1]; octanol and pH 7.0 buffer): partitions into octanol and pH 7.0 buffer almost equally
- Log P ([1]; octanol/pH 7.0 buffer, 24°-26° C., Table I mean ± standard deviation of three determinations): 0.05 ± 0.01

SMILES: OC[C@@H]1C[C@H](F)[C@H](n2cnc3cncnc32)O1 [Compound 1c, 9-(2',3'-dideoxy-2'-fluoro-β-D-arabinofuranosyl)-9-H-purine]
- logD [1, 5]: -0.4 ± 0.01
- anti-HIV activity (in words) ([2]; ATH8 cells): abolished activity

SMILES: Cc1nc(N)c2ncn([C@@H]3O[C@H](CO)C[C@@H]3F)c2n1 [Compound 1d, 2-methyl-9-(2', 3'-dideoxy-2'-fluoro-β-D-arabinofuranosyl)adenine]
- logD ([1]; octanol/ph 7.0 buffer, pH 7): 0.12 ± 0.02
- anti-HIV activity (in words) ([2]; ATH8 cells): the methyl group in the 2-position abolished activity

SMILES: CNc1nc(C)nc2c1ncn2[C@@H]1O[C@H](CO)C[C@@H]1F [Compound 1e, 2,N^6 -Dimethyl-9-(2',3'-dideoxy-2'-fluoro-β-D-arabinofuranosyl)adenine]
- logD [1, 5]: 0.64 ± 0.01
- anti-HIV activity (in words) ([2]; ATH8 cells): the methyl group in the 2-position abolished activity

SMILES: O=C(Nc1ncnc2c1ncn2[C@@H]1O[C@H](CO)C[C@@H]1F)c1ccccc1 [Compound 1g, N^6-benzoyl-9-(2',3'-dideoxy-2'-fluoro-β-D-arabinofuranosyl)adenine]
- Log P ([1]; octanol/ph 7.0 buffer, pH 7): 0.70 ± 0.02
- logD [1, 5]: 0.73
- logD [1, 6]: 0.732
- anti-HIV activity (in words) ([2]; ATH8 cells): preservation of modest activity
- cytotoxicity at 192 h, 5 µM ([3]; 5 μM, without dCF): 2%
- cytotoxicity at 192 h, 20 µM [3, 7]: 0%
- cytotoxicity at 192 h, 50 µM ([3]; 50 μM, without dCF, read-out: % Toxicity): 0%
- cytotoxicity at 192 h, 100 µM ([3]; 100 μM, without dCF, read-out: % Toxicity): 8%

SMILES: Cc1nc2c(N)ncnc2n1[C@@H]1O[C@H](CO)C[C@@H]1F [Compound 1h, 8-Methyl-9-(2',3'-dideoxy-2'-fluoro-β-D-arabinofuranosyl)adenine]
- logD [1, 5]: 0.1 ± 0.01

SMILES: OC[C@@H]1C[C@H](F)[C@H](n2cnc3c(Cl)ncnc32)O1 [Compound 1i, 6-Chloro-9-(2',3'-dideoxy-2-fluoro-β-D-arabinofuranosyl)purine]
- logD ([1]; octanol/ph 7.0 buffer, pH 7): 0.32 ± 0.02
- protection to HIV-infected ATH8 cells ([2]; ATH8 cells, concentration not given): ca. 50%
- anti-HIV activity in the presence of dCF (in words) ([2]; ATH8 cells, dCF added): protection was either abolished or greatly decreased; also recorded: can have activity abolished
- anti-HIV activity (in words) ([2]; ATH8 cells): reproducible, albeit unspectacular, activity; also recorded: only moderate anti-HIV activity
- cytotoxicity at 192 h, 50 µM ([3]; % Toxicity): 46%
- cytotoxicity at 192 h, 100 µM ([3]; % Toxicity): 52%
- % Toxicity (CD4^+ ATH8 cells; 11520 min): 14%
- % Toxicity (CD4^+ ATH8 cells; ath8 cells, 192 h, 50 µM): 56%
- % Toxicity (CD4^+ ATH8 cells; ath8 cells, 192 h, 100 µM): 72%
- Measured Relative Rate ([4]; 50 μM substrate, pH 7.4 and 37° C., ddA = 100): 0.06
- vmax ([4]; pH 7.4 and 37° C.): 2.6 × 10^-2 μmol/min/U
- hydrolysis by ADA, times slower than ddA ([4]; vs ddA, 50 μM substrate): ca. 1700 times slower

SMILES: Nc1c2ncn([C@@H]3O[C@H](CO)C[C@@H]3F)c2nc[n+]1[O-] [Compound 21, 9-(2',3'-Dideoxy-2'-fluoro-β-D-arabinofuranosyl)adenine-1-oxide]
- logD ([1]; octanol/ph 7.0 buffer, pH 7): -1.38
- logD [1, 6]: -1.4
- anti-HIV activity (in words) ([2]; ATH8 cells): abolished activity
- deamination by ADA (in words) ([4]; 0.7 U/mL ADA, 37° C.): no deamination was observed

SMILES: OC[C@H]1O[C@@H](n2cnc3c2NC=NC[C@H]3O)C[C@@H]1O [dCF, 2'-Deoxycoformycin, reference compound]
- protection by additive alone (in words) [2, 8]: did not produce significant toxicity or protection of ATH8 cells against the effects of HIV-1
- toxicity / viability effect of additive alone (in words) (CD4^+ ATH8 cells; [8]): did not produce significant toxicity

SMILES: O=c1[nH]cnc2c1ncn2[C@H]1CC[C@@H](CO)O1 [ddI, dideoxyinosine, reference compound]
- inhibition at 20 µM ([2]; Human immunodeficiency virus 1, IIIB, ATH-8, 192 h, 20 μM, without dCF): 100%
- cytotoxicity at 192 h, 20 µM [3, 7]: 0%
